The results in this text go back to patent publication US11964953B2, “Substituted aminothiazoles as DGKzeta inhibitors for immune activation” (Bayer Aktiengesellschaft, priority 2020, dated 2024).

Chain of human DGKζ (Q13574 other isoform, or with tags, fused parts or gaps): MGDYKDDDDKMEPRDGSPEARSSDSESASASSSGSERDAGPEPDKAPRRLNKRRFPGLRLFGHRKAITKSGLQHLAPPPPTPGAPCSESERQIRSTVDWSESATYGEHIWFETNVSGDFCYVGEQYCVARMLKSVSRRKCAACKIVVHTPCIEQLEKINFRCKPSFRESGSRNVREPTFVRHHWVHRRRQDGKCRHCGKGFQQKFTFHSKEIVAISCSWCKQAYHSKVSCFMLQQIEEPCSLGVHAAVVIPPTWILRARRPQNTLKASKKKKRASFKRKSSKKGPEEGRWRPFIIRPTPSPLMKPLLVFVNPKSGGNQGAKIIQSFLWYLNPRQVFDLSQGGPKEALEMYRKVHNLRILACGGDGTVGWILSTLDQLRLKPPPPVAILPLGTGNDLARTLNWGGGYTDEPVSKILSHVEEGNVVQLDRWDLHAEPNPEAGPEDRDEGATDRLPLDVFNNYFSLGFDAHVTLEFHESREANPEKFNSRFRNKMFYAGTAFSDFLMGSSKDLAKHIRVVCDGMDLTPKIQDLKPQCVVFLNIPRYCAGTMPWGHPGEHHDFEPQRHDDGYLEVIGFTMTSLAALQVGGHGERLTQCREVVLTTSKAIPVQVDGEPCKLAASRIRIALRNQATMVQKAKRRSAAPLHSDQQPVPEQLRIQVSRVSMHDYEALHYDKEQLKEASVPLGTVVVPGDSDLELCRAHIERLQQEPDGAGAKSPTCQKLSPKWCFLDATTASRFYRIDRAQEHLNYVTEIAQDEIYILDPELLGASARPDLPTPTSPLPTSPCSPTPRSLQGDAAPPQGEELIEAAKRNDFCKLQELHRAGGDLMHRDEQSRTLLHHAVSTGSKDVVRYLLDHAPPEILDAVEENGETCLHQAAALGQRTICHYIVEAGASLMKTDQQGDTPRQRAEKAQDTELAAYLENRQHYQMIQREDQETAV

This assay concerns the target human DGKζ (Homo sapiens (Human), UniProt Q13574). Kind of assay: Human DGKζ kinase activity inhibition assay (ADP-Glo). The class given is biochemical. As to conditions: in vitro human DGKζ kinase activity inhibition assay; read-out: IC50. A digest of the protocol: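 Enzyme was C-terminally FLAG-tagged full-length recombinant human DGKζ from baculovirus-infected insect cells. Substrate preparation used octyl-β-D-glucopyranoside in 50 mM MOPS pH 7.4 with sonication; ADP generated was quantified by ADP-Glo luminescence as activity measure.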
On the technique in general: ADP-Glo turns the ADP formed in a reaction into a luminescent signal.
For orientation: IC50 means the concentration that inhibits the measured activity by half. In the case of `CC(C(N)=O)N(c1ccc(F)cc1)c1nc(N)c(C(=O)c2ccc(OCC(=O)NCc3ccccc3F)cc2)s1` (racemic) [Example 96, rac-2-(N-[4-amino-5-[4-[2-[(2-fluorophenyl)methylamino]-2-oxo-ethoxy]benzoyl]thiazol-2-yl]-4-fluoro-anilino)propanamide], the concentration for half-maximal inhibition (IC50) worked out at 0.0314 µM.

With `CC(C(N)=O)N(c1ccc(F)cc1)c1nc(N)c(C(=O)c2ccc(OCC(=O)NCc3ccc(F)cc3)cc2)s1` (racemic) [Example 97, rac-2-(N-[4-amino-5-[4-[2-[(4-fluorophenyl)methylamino]-2-oxo-ethoxy]benzoyl]thiazol-2-yl]-4-fluoro-anilino)propanamide], the IC50 amounted to 0.0247 µM.

For `CC(C(N)=O)N(c1ccc(F)cc1)c1nc(N)c(C(=O)c2ccc(OCC(=O)NCc3nc4ccccc4[nH]3)cc2)s1` (racemic) [Example 98, rac-2-(N-[4-amino-5-[4-[2-(1H-benzimidazol-2-ylmethylamino)-2-oxo-ethoxy]benzoyl]thiazol-2-yl]-4-fluoro-anilino)propanamide], the half-inhibitory concentration (IC50) amounted to 0.0735 µM.

Consider `CC(C(N)=O)N(c1ccc(F)cc1)c1nc(N)c(C(=O)c2ccc(OCC(=O)NCC(F)(F)F)cc2)s1` (racemic) [Example 99, rac-2-(N-[4-amino-5-[4-[2-oxo-2-(2,2,2-trifluoroethylamino)ethoxy]benzoyl]thiazol-2-yl]-4-fluoro-anilino)propanamide], for which the half-inhibitory concentration (IC50) worked out at 0.0758 µM.

In the case of `CC(C(N)=O)N(c1ccc(F)cc1)c1nc(N)c(C(=O)c2ccc(OCC(=O)N(C)C3CCN(C)CC3)cc2)s1` (racemic) [Example 101, rac-2-(N-[4-amino-5-[4-[2-[methyl-(1-methyl-4-piperidyl)amino]-2-oxo-ethoxy]benzoyl]thiazol-2-yl]-4-fluoro-anilino)propanamide], the IC50 worked out at 0.329 µM.

`CONC(=O)COc1ccc(C(=O)c2sc(N(c3ccc(F)cc3)C(C)C(N)=O)nc2N)cc1` (racemic) [Example 102, rac-2-(N-[4-amino-5-[4-[2-(methoxyamino)-2-oxo-ethoxy]benzoyl]thiazol-2-yl]-4-fluoro-anilino)propanamide]: the IC50 amounted to 0.506 µM.

For `Cc1cc(NC(=O)COc2ccc(C(=O)c3sc(N(c4ccc(F)cc4)C(C)C(N)=O)nc3N)cc2)no1` (racemic) [Example 103, rac-2-(N-[4-amino-5-[4-[2-[(5-methylisoxazol-3-yl)amino]-2-oxo-ethoxy]benzoyl]thiazol-2-yl]-4-fluoro-anilino)propanamide], the IC50 was 0.0419 µM.

In the case of `CCNC(=O)COc1ccc(C(=O)c2sc(N(c3ccc(F)cc3)C(C)C(N)=O)nc2N)cc1` (racemic) [Example 104, rac-2-(N-[4-amino-5-[4-[2-(ethylamino)-2-oxo-ethoxy]benzoyl]thiazol-2-yl]-4-fluoro-anilino)propanamide], the IC50 was 0.234 µM.

Consider `CC(C(N)=O)N(c1ccc(F)cc1)c1nc(N)c(C(=O)c2ccc(OCC(=O)NC3CCCCC3)cc2)s1` (racemic) [Example 106, rac-2-(N-(4-amino-5-[4-[2-(cyclohexylamino)-2-oxo-ethoxy]benzoyl]thiazol-2-yl]-4-fluoro-anilino)propanamide], for which the IC50 was found to be 0.0333 µM.

Regarding `CC(C(N)=O)N(c1ccc(F)cc1)c1nc(N)c(C(=O)c2ccc(OCC(=O)Nc3cccc(C(N)=O)c3)cc2)s1` (racemic) [Example 107, rac-3-[[2-[4-[4-amino-2-(N-[2-amino-1-methyl-2-oxo-ethyl]-4-fluoro-anilino)thiazole-5-carbonyl]phenoxy]acetyl]amino]benzamide], the concentration for half-maximal inhibition (IC50) worked out at 0.0773 µM.

Regarding `CC(C(N)=O)N(c1ccc(F)cc1)c1nc(N)c(C(=O)c2ccc(OCC(=O)Nc3ccc4ncccc4c3)cc2)s1` (racemic) [Example 108, rac-2-(N-(4-amino-5-[4-[2-oxo-2-(6-quinolylamino)ethoxy]benzoyl]thiazol-2-yl]-4-fluoro-anilino)propanamide], the half-maximal inhibitory concentration (IC50) is 0.0194 µM.

As for `CC(C(N)=O)N(c1ccc(F)cc1)c1nc(N)c(C(=O)c2ccc(OCC(=O)Nc3ccc(C(N)=O)cc3)cc2)s1` (racemic) [Example 109, rac-4-[[2-[4-[4-amino-2-(N-[2-amino-1-methyl-2-oxo-ethyl]-4-fluoro-anilino)thiazole-5-carbonyl]phenoxy]acetyl]amino]benzamide], the IC50 came out at 0.0517 µM.

For the compound `CCN(C)C(=O)COc1ccc(C(=O)c2sc(N(c3ccc(F)cc3)C(C)C(N)=O)nc2N)cc1` (racemic) [Example 111, rac-2-(N-[4-amino-5-[4-[2-[ethyl(methyl)amino]-2-oxo-ethoxy]benzoyl]thiazol-2-yl]-4-fluoro-anilino)propanamide], the IC50 turned out to be 0.334 µM.

As to `Cc1cc(NC(=O)COc2ccc(C(=O)c3sc(N(c4ccc(F)cc4)C(C)C(N)=O)nc3N)cc2)on1` (racemic) [Example 112, rac-2-(N-(4-amino-5-[4-[2-[(3-methylisoxazol-5-yl)amino]-2-oxo-ethoxy]benzoyl]thiazol-2-yl]-4-fluoro-anilino)propanamide], the IC50 came out at 0.3 µM.

On to `CC(C(N)=O)N(c1ccc(F)cc1)c1nc(N)c(C(=O)c2ccc(OCC(=O)N(C)CCCN(C)C)cc2)s1` (racemic) [Example 113, rac-2-(N-(4-amino-5-[4-[2-[3-(dimethylamino)propyl-methyl-amino]-2-oxo-ethoxy]benzoyl]thiazol-2-yl]-4-fluoro-anilino)propanamide], for which the concentration for half-maximal inhibition (IC50) worked out at 0.703 µM.

`CC(=O)N1CCN(C(=O)COc2ccc(C(=O)c3sc(N(c4ccc(F)cc4)C(C)C(N)=O)nc3N)cc2)CC1` (racemic) [Example 114, rac-2-(N-[5-[4-[2-(4-acetylpiperazin-1-yl)-2-oxo-ethoxy]benzoyl]-4-amino-thiazol-2-yl]-4-fluoro-anilino)propanamide]: the IC50 is 0.658 µM.

Consider `CC(C(N)=O)N(c1ccc(F)cc1)c1nc(N)c(C(=O)c2ccc(OCC(=O)NCC(O)CO)cc2)s1` (racemic) [Example 116, 2-(N-[4-amino-5-(4-[2-(2,3-dihydroxypropylamino)-2-oxo-ethoxy]benzoyl]thiazol-2-yl]-4-fluoro-anilino)propanamide], for which the IC50 was 0.581 µM.

In the case of `COc1ccc(NC(=O)COc2ccc(C(=O)c3sc(N(c4ccc(F)cc4)C(C)C(N)=O)nc3N)cc2)cc1` (racemic) [Example 117, rac-2-(N-[4-amino-5-[4-[2-(4-methoxyanilino)-2-oxo-ethoxy]benzoyl]thiazol-2-yl]-4-fluoro-anilino)propanamide], the IC50 is 0.0149 µM.

On to `CC(C(N)=O)N(c1ccc(F)cc1)c1nc(N)c(C(=O)c2ccc(OCC(=O)Nc3ccc(Cl)cc3)cc2)s1` (racemic) [Example 119, rac-2-(N-[4-amino-5-[4-[2-(4-chloroanilino)-2-oxo-ethoxy]benzoyl]thiazol-2-yl]-4-fluoro-anilino)propanamide], for which the half-inhibitory concentration (IC50) was 0.00454 µM.

Regarding `CC(C(N)=O)N(c1ccc(F)cc1)c1nc(N)c(C(=O)c2ccc(OCC(=O)NCc3ccccc3Cl)cc2)s1` (racemic) [Example 120, rac-2-(N-[4-amino-5-[4-[2-[(2-chlorophenyl)methylamino]-2-oxo-ethoxy]benzoyl]thiazol-2-yl]-4-fluoro-anilino)propanamide], the half-inhibitory concentration (IC50) was 0.0167 µM.

For the compound `CC(C(N)=O)N(c1ccc(F)cc1)c1nc(N)c(C(=O)c2ccc(OCC(=O)Nc3ccc(F)cc3)cc2)s1` (racemic) [Example 122, rac-2-(N-[4-amino-5-[4-[2-(4-fluoroanilino)-2-oxo-ethoxy]benzoyl]thiazol-2-yl]-4-fluoro-anilino)propanamide], the IC50 amounted to 0.00907 µM.

With `CC(C(N)=O)N(c1ccc(F)cc1)c1nc(N)c(C(=O)c2ccc(OCC(=O)N3CCCCCC3)cc2)s1` (racemic) [Example 123, rac-2-(N-[4-amino-5-[4-[2-(azepan-1-yl)-2-oxo-ethoxy]benzoyl]thiazol-2-yl]-4-fluoro-anilino)propanamide], the IC50 was determined as 0.1 µM.

`COc1ccc(CNC(=O)COc2ccc(C(=O)c3sc(N(c4ccc(F)cc4)C(C)C(N)=O)nc3N)cc2)cc1` (racemic) [Example 124, rac-2-(N-[4-amino-5-[4-[2-[(4-methoxyphenyl)methylamino]-2-oxo-ethoxy]benzoyl]thiazol-2-yl]-4-fluoro-anilino)propanamide]: the IC50 is 0.0483 µM.

Take `CC(NC(=O)COc1ccc(C(=O)c2sc(N(c3ccc(F)cc3)C(C)C(N)=O)nc2N)cc1)c1ccccc1` (racemic) [Example 125, 2-(N-[4-amino-5-[4-[2-oxo-2-(1-phenylethylamino)ethoxy]benzoyl]thiazol-2-yl]-4-fluoro-anilino)propanamide]: the IC50 is 0.044 µM.

As to `Cc1ccc(CNC(=O)COc2ccc(C(=O)c3sc(N(c4ccc(F)cc4)C(C)C(N)=O)nc3N)cc2)cc1` (racemic) [Example 126, rac-2-(N-[4-amino-5-[4-[2-oxo-2-(p-tolylmethylamino)ethoxy]benzoyl]thiazol-2-yl]-4-fluoro-anilino)propanamide], the IC50 is 0.0288 µM.

As for `CC(C(N)=O)N(c1ccc(F)cc1)c1nc(N)c(C(=O)c2ccc(OCC(=O)N(C)CCc3ccccc3)cc2)s1` (racemic) [Example 127, rac-2-(N-[4-amino-5-[4-[2-[methyl(2-phenylethyl)amino]-2-oxo-ethoxy]benzoyl]thiazol-2-yl]-4-fluoro-anilino)propanamide], the IC50 turned out to be 0.0731 µM.

In the case of `CC1CCCN(C(=O)COc2ccc(C(=O)c3sc(N(c4ccc(F)cc4)C(C)C(N)=O)nc3N)cc2)C1` (racemic) [Example 128, 2-(N-[4-amino-5-[4-[2-(3-methyl-1-piperidyl)-2-oxo-ethoxy]benzoyl]thiazol-2-yl]-4-fluoro-anilino)propanamide], the IC50 was 0.0722 µM.

Take `CC1CCN(C(=O)COc2ccc(C(=O)c3sc(N(c4ccc(F)cc4)C(C)C(N)=O)nc3N)cc2)CC1` (racemic) [Example 129, rac-2-(N-[4-amino-5-(4-[2-(4-methyl-1-piperidyl)-2-oxo-ethoxy]benzoyl]thiazol-2-yl]-4-fluoro-anilino)propanamide]: the 50% inhibitory concentration (IC50) is 0.0971 µM.
